This note sets out measurements from patent US10570177B2, “P3 peptidylic inhibitors for treating CAG-repeat RNA toxicity in polyglutamine diseases” (The Chinese University of Hong Kong, priority 2017, dated 2020).

Data set [1] relates to primary rat cortical neurons. In words: LDH cytotoxicity in primary rat cortical neurons. The data set is classed as cell-based. Conditions: 0.01 nM to 1 μM, 72 hr. How it is done: A density of 5×10^5 of primary rat cortical neurons were seeded on culture dish and individually cultured in medium containing 0.01, 0.1, 1, 5, 10, 50, 100, 250, 500, 750, and 1000 nM of P3V8 peptide (transfected with DeliverX). The lactate dehydrogenase (LDH) cytotoxicity activity was measured 72 hr post-treatment. Fold change of LDH activity was normalized to untreated cells. Data are expressed as mean±S.E.M. for 3 independent experiments. NS indicates no significance.
The LDH cytotoxicity activity was measured 72 hr posttreatment. Fold change of LDH activity was normalized to untreated cells. Data are expressed as mean±S.E.M. for 3 independent experiments. NS indicates no significance.
Because of the aim to develop P3V8 into a potent inhibitor that targets RNA toxicity in degenerating cells within the nervous system, it was assessed whether P3V8 had deleterious effects on neuronal cells by determining lactate dehydrogenase release in the culturing medium of rat cortical neurons.

The subject of data set [2] is wild type Drosophila. As to the kind of experiment: Egg-to-adult viability test of wild-type flies. The data set is classed as in vivo. To be noted: 10 or 50 μM in fly food, 21.5° C. How it is done:
Eggs laid within 5 hr were collected and cultured in fly food containing 10 or 50 μM of respective peptides at 21.5° C. Viability from egg to adult was calculated as the number of adult flies collected divided by the number of eggs examined. Data are expressed as mean±S.E.M. for 3 independent experiments. NS indicates no significance.
Flies were raised at 21.5° C. on cornmeal medium supplemented with dry yeast. Fly lines bearing UAS-DsRedCAG0 and UAS-DsRedCAG100 were kind gifts of Professor Nancy Bonini (University of Pennsylvania, USA). The gmr-GAL4 fly line was obtained from Bloomington Drosophila Stock Center. For pseudopupil assay, third instar larvae were fed with various amount of respective peptides dissolved in 2% sucrose solution for 2 hr and then continued to culture in standard fly food at 21.5° C.^38. Pseudopupil assay was performed on 12 day-old adult flies as mentioned previously^39. Images were captured by SPOT Insight CCD camera controlled by the SPOT Advanced software (Diagnostic instruments Inc.). Image processing was performed using the Adobe Photoshop CS software (Adobe). Each experiment was repeated at least 3 times (n=10 fly heads), and consistent results were obtained. […] Viability from egg-to-adult was calculated as the number of adult flies collected divided by the number of eggs examined. […]

Data set [3] concerns the target MJDCAG27 RNA. In words: Isothermal titration calorimetry binding assay, unexpanded MJDCAG27 RNA. How it is done: To test whether P3V8 specifically targets expanded CAG RNA, ITC experiments were performed using unexpanded CAG RNA (MJDCAG27 RNA), expanded CAG RNA (MJDCAG78 RNA), and expanded CAA/G RNA (MJDCAA/G78 RNA), respectively, to investigate whether the binding of P3V8 is RNA expansion-dependent and sequence-dependent (Table 6).
(§1) Experiments were carried out using a MicroCal iTC200 isothermal titration calorimeter (GE Healthcare) at 25° C. Data were analyzed using the Origin® scientific plotting software version 7 (Microcal Software Inc.). All RNAs and peptides were dissolved in binding buffer (20 mM MOPS, pH 7.0; 300 mM NaCl) and 0.7 mM of peptide was titrated into 0.5 μM of RNA for each experiment. The concentration of RNA was estimated with appropriate extinction coefficients at 260 nm on a Nanodrop 2000 (Thermo Scientific). A reference power of 8 μcal/s was used with an initial 0.5 μl of injection of peptide followed by 2 μl for all subsequent titrations points with a 60 sec initial equilibrium delay and 150 sec pause between injections. The samples were stirred at a speed of 1000 rpm throughout the experiment. The thermal titration data were fitted to the ‘one binding site model’ to determine the dissociation constant (KD). Each experiment was repeated at least 3 times with consistent results obtained.
(In general: ITC needs no label: the signal is the heat of the interaction.)

The subject of data set [4] is pre-45s rRNA. As to the kind of experiment: Real-time PCR of pre-45s rRNA level in EGFPCAG78 RNA-expressing HEK293 cells. To be noted: with DeliverX. The data set is classed as cell-based, human. The procedure:
It was next investigated whether P3V8 could also mitigate expanded CAG RNA-induced toxicity in mammalian cells. […] To compare the inhibitory activity of P3WT and P3V8, the peptide transfection reagent DeliverX (DX) was used to deliver P3WT and P3V8 to EGFPCAG78 RNA-expressing HEK293 cells. […] To confirm that P3V8 inhibited expanded CAG RNA-mediated nucleolar stress, the levels of pre-45s rRNA were measured in EGFPCAG78 RNA-expressing cells with or without treatment of P3V8 (FIG. 3C). Overexpression of the expanded CAG RNA reduced the level of pre-45s rRNA to approximately 40% of the untransfected control.
(§2) RNA was extracted from cells or ten 12 day-old adult fly heads by Trizol reagent (Life Technologies), and 1 μg of purified RNA was then used for reverse-transcription using the ImPromII™ Reverse Transcription System (Promega). Random hexamer (Roche) was used as primers in reverse transcription. Taqman gene expression assays were performed on an ABI 7500 Real-time PCR system and data were analyzed as previously described^13. The following probes were used: pre-45s rRNA (Assay ID: AILJIZM), pre-rRNA (Assay ID: AIMSG5U), Drosophila GAPDH (Assay ID: Dm01841186) and human actin (Assay ID: Hs99999903_m1). Each experiment was repeated at least 3 times.
On the technique in general: In qPCR the cycle at which signal appears reflects the starting amount.

In data set [5] the target is MJDCAG78 RNA. In words: Isothermal titration calorimetry binding assay, expanded MJDCAG78 RNA. To be noted: ITC at 25° C.; 0.7 mM peptide titrated into 0.5 μM MJDCAG78 RNA; one binding site model; mean ± S.E.M. How it is done:
as §1

The subject of data set [6] is pre-rRNA. As to the kind of experiment: Real-time PCR of pre-rRNA level in DsRedCAG100 flies. The data set is classed as in vivo, Drosophila. To be noted: 1 μM. The procedure: Ribosomal RNA (rRNA) synthesis occurs within the nucleolus^15. It was previously shown that expanded CAG RNA induces nucleolar stress by preventing the nucleolar protein NCL from binding to the upstream control element of the rRNA promoter, leading to the downregulation of rRNA transcription^13. To investigate whether P3V8 suppressed neurotoxicity by alleviating expanded CAG RNA-induced nucleolar stress in vivo, the expression levels of pre-rRNA in were measured DsRedCAG100 flies treated with the peptide. […] This confirms that P3V8 subdued polyQ neurodegeneration in vivo by effective mitigation of the expanded CAG RNA-induced nucleolar stress.
as §2

“Also recorded” adds a separate entry of the source. Residues, ends and D or L forms follow the SMILES beside them. *: point of attachment. Palmitoyl = CCCCCCCCCCCCCCCC(=O)*

On to `CCCCCCCCCCCCCCCC(=O)N[C@@H](CC(=O)O)C(=O)NCC(=O)N[C@@H](CCCCN)C(=O)N[C@@H](CO)C(=O)N[C@@H](CCCCN)C(=O)NCC(=O)N[C@H](C(=O)N[C@@H](C)C(=O)N[C@@H](Cc1ccc(O)cc1)C(=O)N[C@H](C(=O)N[C@@H](CCC(=O)O)C(=O)N[C@@H](Cc1ccccc1)C(=O)N[C@@H](CCCCN)C(N)=O)[C@@H](C)CC)[C@@H](C)CC` [L1P3V8] (Palmitoyl-DGKSKGIAYIEFK-NH2), for which the “cytotoxicity (LDH release)” value in data set [1] is given as “no cytotoxic effects; also recorded: no cytotoxicity”. Besides, in data set [2], the egg-to-adult viability entry is “no obvious alteration; also recorded: did not affect the viability”.
On to Ac-DGKSKGIAYIEFK-NH2 [P3V8], for which the Kd worked out at 2.19 ± 0.27 µM in data set [3] (ITC, 0.7 mM peptide into 0.5 μM MJDCAG27 RNA, mean ± S.E.M.) and 0.33 µM in data set [5]. Moreover, the “lower affinity than for expanded CAG RNA” value in data set [3] (unexpanded RNA vs expanded MJDCAG78 RNA) was 6-9 fold. For the same molecule, in data set [4], the “pre-45s rRNA level” value is on record as “dose-dependent restoration”. Also, the pre-rRNA level result in data set [6] is “fully recovered to the DsRedCAG0 control level”.

As a reminder, the Kd is a measure of binding affinity in units of concentration. Low readings indicate tighter binding, high ones weaker binding.
